The test system of assay [1] is A549 cells. The assay can be described thus: FACS analysis of cell cycle (propidium iodide). The conditions noted are these: for apoptotic population of cells (sub-G1): 75 μM FTS; for reduction in G1 population: FTS. It counts as cell-based, human. The method, then:
A549 cells were plated (9×10^5 cells) in 10-cm plates, incubated for 24 h in medium containing 5% FCS, and then incubated for 24 or 48 h with or without 75 μM FTS. The cells were collected, resuspended in PBS containing propidium iodide (50 μg/ml; Sigma) and 0.05% Triton X-100, and subjected to analysis by a fluorescence-activated cell sorter (FACSCalibur; Becton Dickinson, Los Angeles, Calif.).
To investigate the effect of FTS on lung cancer cell proliferation, we first incubated A549 cells that harbor the activated K-ras gene mutated at codon 12. A549 cells are commonly used as a model for drug screening. […] Increasing concentration of FTS inhibited A549 cell growth at a dose dependent rate, with a decrease of 50% at 40 μM FTS. The number of cells in the FTS-treated cultures was determined by direct counting of A549 cells grown for 6 days in the presence of FTS and was expressed as a percentage of the number recorded in the controls. Data were means of 12 counts ±SD. *P<0.01, **P<0.0005, compared to control (FIG. 3). In another set of experiments, cells were also treated for 24 and 48 h with FTS and collected for FACS analysis (FIG. 4). The apoptotic population of cells (indicated in the FACS analysis as sub-G1) was 3.8% at 24 h and 8.4% at 48 h in cells treated with 75 μM FTS, compared to 1.0% and 2.8%, respectively, in control cells (FIG. 4). […] Thus, FTS induced cell-cycle arrest in A549 cells, resulting in inhibition of cell growth.
Background: In flow cytometry, cells or beads pass a laser one at a time.

Assay [2] deals with human lung cancer cell lines A549, H23, HTB54, H-1299, HTB-58 (SK-MES-1). The assay can be described thus: Growth inhibition of human lung cancer cell lines by direct cell counting. As to conditions: range over A549, H23, HTB54, H-1299, HTB-58 (SK-MES-1), read-out: IC50 of growth inhibition, depending on the cell line. The assay is classed as cell-based. The method, then:
FTS was provided by Concordia Pharmaceuticals, Inc. (Ft. Lauderdale, Fla.). All cell lines were obtained from American Type Culture Collection (“ATCC”) (Manassas, Va.). A549 cells, non-small-cell lung carcinoma (CCL, ATCC) cells, were cultured in Kaighn's modification of Ham's F-12 medium containing 1.5 g/l sodium bicarbonate, 10% fetal calf serum (FCS), 100 U/ml penicillin, and 100 μg/ml streptomycin. HTB54 lung carcinoma cells were cultured in McCoy's 5A medium with 10% FCS, 100 U/ml penicillin, and 10 μg/ml streptomycin. HTB-58 (SK-MES-1, ATCC), a human lung squamous cell carcinoma cell line, was cultured in Eagle's minimum essential medium with 2 mM L-glutamine and Earle's BSS, 1.5 g/l sodium bicarbonate, 0.1 mM non-essential amino acids, 1 mM sodium pyruvate, 10% FCS, 100 U/ml penicillin, and 100 μg/ml streptomycin. […] Cells were treated with the indicated concentrations of FTS (Concordia Pharmaceuticals, Sunrise Fla.) or with 0.1% Me2SO4 (DMSO) (vehicle) 24 h after plating and were counted 5 days later. Dead cells were counted after addition of Hoechst 33258 dye (Sigma-Aldrich, St. Louis, Mo.); 1 μg/ml) to vehicle-treated control cultures or to cultures treated for 24 or 48 h with 75 μM FTS. Fluorescence images were collected 5 min after the dye was added. […]

Assay [3] deals with A549 cells. The assay can be described thus: Immunofluorescence of cytoskeleton (F-actin, vinculin) and cell morphology. As to conditions: 75 μM FTS, 48 h. The assay is classed as cell-based, human. The method, then:
A549 cells were plated on glass cover slips (2×10^4 cells/well in 6-well plates), incubated for 24 h in medium containing 5% FCS, and then incubated for 48 h with or without 75 μM FTS. The cells were fixed and permeabilized at room temperature by successive incubations with 3.7% formaldehyde (20 min) and 0.2% Triton X-100 in PBS (5 min), then washed for 5 min with UB buffer (150 mM NaCl, 10 mM Tris pH 7.6, and 0.2% sodium azide in PBS) and blocked with 2% BSA in UB (UBB, 5 min). The fixed cells were incubated successively with naïve goat IgG for 30 min (200 μg/ml, Jackson ImmunoResearch Laboratories, West Grove, Pa.), anti-vinculin Ab for 1 h (1:400, Sigma-Aldrich), goat anti-mouse Cy2-conjugated Ab for 1 h (1:200, Jackson), and rhodamine-labeled phalloidin for 1 h (1:1000, Sigma-Aldrich). Between each of the above steps the cells were washed for 30 min with UBB. Lastly, the cover slips were washed with UB, dried, and mounted onto the slides with Muviol. F-actin (red) and vinculin (green) were visualized with a Zeiss LSM 510 confocal microscope fitted with non-leaking green and red fluorescence filters. Co-localization was assessed using the co-localization function of the LSM 510 software. […]

The structures appear in SMILES notation.

Data on 1 molecule can be found in patent publication US8232253B2, “Treatment of lung cancer” (Ramot at Tel-Aviv University Ltd., priority 2006, dated 2012).

Consider `CC(C)=CCC/C(C)=C/CC/C(C)=C/CSc1ccccc1C(=O)O` [FTS, S-farnesylthiosalicylic acid], for which the “apoptotic population of cells (sub-G1)” value in the assay with A549 cells [1] (24 h) came out at 3.8%; in the assay on A549 cells [1] (48 h) it was 8.4%. Moreover, the “reduction in G1 population” value in the assay with A549 cells [1] (24 h) was 5.6%; in the assay on A549 cells [1] (48 h), 19%. Besides, the half-inhibitory concentration (IC50) in assay [2] lay in the range of 30 to 75 µM. Further, the “cells that had undergone changes in cell morphology” value in the assay with A549 cells [3] is listed as “more than 80%”.

The IC50 is the point on the concentration scale where inhibition reaches its midpoint.
